In ChEMBL document CHEMBL1201862, “PubChem BioAssay data set” (2004):
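All cell lines were grown in 96-well plates and treated with compound for 48 hours. Here, GI50 denotes the concentration required for 50% inhibition of growth.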 Calls of active or inactive are those of the source. No stated cut-off is given here; in the data, active = GI50 up to about 1.1 µM and inactive = higher.

How the values were obtained:
Test in all cases: DTP human tumour cell line panel, 48 h
NCI-H226 = tested on: NCI-H226
SR = tested on: SR
SK-OV-3 = tested on: SK-OV-3
NCI/ADR-RES = tested on: NCI/ADR-RES
SNB-19 = tested on: SNB-19
MDA-MB-231 = tested on: MDA-MB-231
SNB-75 = tested on: SNB-75
MOLT-4 = tested on: MOLT-4
HCC 2998 = tested on: HCC 2998
SF-295 = tested on: SF-295
SW-620 = tested on: SW-620
KM12 = tested on: KM12
UACC-62 = tested on: UACC-62
OVCAR-5 = tested on: OVCAR-5
M14 = tested on: M14
NCI-H522 = tested on: NCI-H522
SF-539 = tested on: SF-539
EKVX = tested on: EKVX
IGROV-1 = tested on: IGROV-1
SNB-78 = tested on: SNB-78

Row | Structure (SMILES) | GI50 (NCI-H226) | GI50 (SR) | GI50 (SK-OV-3) | GI50 (NCI/ADR-RES) | GI50 (SNB-19) | GI50 (MDA-MB-231) | GI50 (SNB-75) | GI50 (MOLT-4) | GI50 (HCC 2998) | GI50 (SF-295) | GI50 (SW-620) | GI50 (KM12) | GI50 (UACC-62) | GI50 (OVCAR-5) | GI50 (M14) | GI50 (NCI-H522) | GI50 (SF-539) | GI50 (EKVX) | GI50 (IGROV-1) | GI50 (SNB-78)
1 | CC(C)NC(=O)CN1CCN(C2=CC(=O)c3c(O)ccc(O)c3C2=O)CC1 | 31.4 µM (inactive) | 1.57 µM (inactive) | 26.1 µM (inactive) | 3.9 µM (inactive) | 18.7 µM (inactive) | 26.3 µM (inactive) | 18.2 µM (inactive) | 17 µM (inactive) | 16.7 µM (inactive) | 15.6 µM (inactive) | 4.25 µM (inactive) | 16.6 µM (inactive) | 5.18 µM (inactive) | 18.7 µM (inactive) | 9.33 µM (inactive) | 18.2 µM (inactive) | 16.7 µM (inactive) | 19.3 µM (inactive) | 14.8 µM (inactive) | –
2 | BrC12C3C4C5C(C(C43)C13OCCO3)C52 (configuration not stated) | – | – | > 100 µM (inactive) | – | > 100 µM (inactive) | – | > 100 µM (inactive) | > 100 µM (inactive) | > 100 µM (inactive) | > 100 µM (inactive) | > 100 µM (inactive) | > 100 µM (inactive) | – | > 100 µM (inactive) | – | > 100 µM (inactive) | > 100 µM (inactive) | > 100 µM (inactive) | > 100 µM (inactive) | > 100 µM (inactive)
3 | Cc1ccc(C)c(/C(=N\N=C(N)N)C2CC2)c1 | 31.7 µM (inactive) | 37.6 µM (inactive) | > 100 µM (inactive) | 58.1 µM (inactive) | 48.9 µM (inactive) | 63.4 µM (inactive) | 37.5 µM (inactive) | 35.2 µM (inactive) | 20.4 µM (inactive) | 42.6 µM (inactive) | 33.1 µM (inactive) | 39.9 µM (inactive) | 35.6 µM (inactive) | 29.9 µM (inactive) | 39.6 µM (inactive) | 28.6 µM (inactive) | 32.3 µM (inactive) | 43.9 µM (inactive) | 32.7 µM (inactive) | –
4 | NC1=Nc2ccccc2Sc2nncn21 | > 100 µM (inactive) | > 100 µM (inactive) | > 100 µM (inactive) | > 100 µM (inactive) | > 100 µM (inactive) | 85.3 µM (inactive) | > 100 µM (inactive) | > 100 µM (inactive) | > 100 µM (inactive) | > 100 µM (inactive) | > 100 µM (inactive) | > 100 µM (inactive) | > 100 µM (inactive) | > 100 µM (inactive) | > 100 µM (inactive) | 77.6 µM (inactive) | > 100 µM (inactive) | > 100 µM (inactive) | > 100 µM (inactive) | –
5 | O=C1C=C(C2=C(C3=CC(=O)c4ccccc4C3=O)C(=O)c3ccccc3C2=O)C(=O)c2ccccc21 | 13 µM (inactive) | 31.1 µM (inactive) | 20.9 µM (inactive) | 11.1 µM (inactive) | 14.4 µM (inactive) | 3.07 µM (inactive) | 9.46 µM (inactive) | 0.389 µM (active) | 16.9 µM (inactive) | 16.1 µM (inactive) | 3.79 µM (inactive) | 7 µM (inactive) | 15.1 µM (inactive) | 11.8 µM (inactive) | 8.87 µM (inactive) | 2.17 µM (inactive) | 8.28 µM (inactive) | 11.1 µM (inactive) | 2.15 µM (inactive) | –
6 | CC(=O)Nc1cc(Cl)cc(Cl)c1O | > 100 µM (inactive) | > 100 µM (inactive) | > 100 µM (inactive) | > 100 µM (inactive) | > 100 µM (inactive) | > 100 µM (inactive) | 97.1 µM (inactive) | > 100 µM (inactive) | > 100 µM (inactive) | > 100 µM (inactive) | > 100 µM (inactive) | > 100 µM (inactive) | > 100 µM (inactive) | > 100 µM (inactive) | > 100 µM (inactive) | > 100 µM (inactive) | > 100 µM (inactive) | > 100 µM (inactive) | > 100 µM (inactive) | –
7 | NC1Cc2ccccc2OC1=O (configuration not stated) | > 100 µM (inactive) | > 100 µM (inactive) | > 100 µM (inactive) | > 100 µM (inactive) | > 100 µM (inactive) | > 100 µM (inactive) | > 100 µM (inactive) | > 100 µM (inactive) | > 100 µM (inactive) | > 100 µM (inactive) | > 100 µM (inactive) | > 100 µM (inactive) | > 100 µM (inactive) | > 100 µM (inactive) | > 100 µM (inactive) | > 100 µM (inactive) | > 100 µM (inactive) | > 100 µM (inactive) | > 100 µM (inactive) | –
8 | C[N+]12CCCCC1C(CN1C(=O)c3ccccc3C1=O)CCC2 (configuration not stated) | > 100 µM (inactive) | 56 µM (inactive) | > 100 µM (inactive) | > 100 µM (inactive) | > 100 µM (inactive) | > 100 µM (inactive) | > 100 µM (inactive) | > 100 µM (inactive) | > 100 µM (inactive) | > 100 µM (inactive) | > 100 µM (inactive) | > 100 µM (inactive) | > 100 µM (inactive) | > 100 µM (inactive) | > 100 µM (inactive) | > 100 µM (inactive) | > 100 µM (inactive) | > 100 µM (inactive) | > 100 µM (inactive) | –
9 | O=C1CC2=CCCC2O1 (configuration not stated) | – | – | > 100 µM (inactive) | – | > 100 µM (inactive) | – | > 100 µM (inactive) | > 100 µM (inactive) | > 100 µM (inactive) | > 100 µM (inactive) | > 100 µM (inactive) | > 100 µM (inactive) | > 100 µM (inactive) | – | > 100 µM (inactive) | > 100 µM (inactive) | > 100 µM (inactive) | > 100 µM (inactive) | > 100 µM (inactive) | > 100 µM (inactive)
10 | CC(C)CCC[C@@H](C)C1CCC2[C@@H]3CC=C4C[C@@H](C(=O)NCC[N+](C)(C)CCCS(=O)(=O)[O-])CC[C@]4(C)C3CC[C@@]21C (some centres not stated) | 21.2 µM (inactive) | – | 16.8 µM (inactive) | – | 21.8 µM (inactive) | – | 20.2 µM (inactive) | 18.2 µM (inactive) | 19.8 µM (inactive) | 20 µM (inactive) | 16.6 µM (inactive) | 17.4 µM (inactive) | 20.1 µM (inactive) | – | 17.2 µM (inactive) | 11.5 µM (inactive) | 21.3 µM (inactive) | 16.9 µM (inactive) | 17.3 µM (inactive) | 18.8 µM (inactive)
11 | CC1CC2C3CCC4=CC(=O)C=CC4(C)C3(F)C(O)CC2(C)C1(O)C(=O)CO.Cc1nnc(NS(=O)(=O)c2ccc(/N=N/c3cc(/N=N/c4ccc(S(=O)(=O)Nc5nnc(C)s5)cc4)c4c(NC(=O)C(Cl)Cl)cccc4c3OC(=O)C(Cl)Cl)cc2)s1 | – | – | – | – | 48.5 µM (inactive) | – | 37.3 µM (inactive) | 5.53 µM (inactive) | 21.3 µM (inactive) | 42.3 µM (inactive) | 22.6 µM (inactive) | 23.6 µM (inactive) | 33 µM (inactive) | 27.9 µM (inactive) | 28.4 µM (inactive) | 21.6 µM (inactive) | 18.9 µM (inactive) | 34.4 µM (inactive) | 24.5 µM (inactive) | > 100 µM (inactive)
12 | COC(=O)C1=C(C)N2[C@H](C(=O)O)CS[C@@]2(C)[C@H](C(=O)OC)[C@H]1c1cccc([N+](=O)[O-])c1 | > 100 µM (inactive) | > 100 µM (inactive) | > 100 µM (inactive) | > 100 µM (inactive) | > 100 µM (inactive) | > 100 µM (inactive) | > 100 µM (inactive) | > 100 µM (inactive) | > 100 µM (inactive) | > 100 µM (inactive) | > 100 µM (inactive) | > 100 µM (inactive) | > 100 µM (inactive) | > 100 µM (inactive) | > 100 µM (inactive) | > 100 µM (inactive) | > 100 µM (inactive) | > 100 µM (inactive) | > 100 µM (inactive) | –
13 | Cc1ccc2nc(NC(=O)C(=O)C(C#N)c3nc4ccccc4s3)sc2c1 (configuration not stated) | 25.1 µM (inactive) | – | 55.8 µM (inactive) | – | 31.8 µM (inactive) | – | 40.6 µM (inactive) | 20.4 µM (inactive) | 79.8 µM (inactive) | 37.2 µM (inactive) | 55.1 µM (inactive) | 47.2 µM (inactive) | 30.7 µM (inactive) | 57.5 µM (inactive) | 33.8 µM (inactive) | 32.1 µM (inactive) | 22.3 µM (inactive) | 39 µM (inactive) | 17.8 µM (inactive) | 36.3 µM (inactive)
14 | CC(=O)O[C@@H]1CC(C)C2CC2C2=C(C(O)OC2O)[C@@H]1C(C)CCC=C(C)C (some centres not stated) | 20.1 µM (inactive) | – | – | – | 33.7 µM (inactive) | – | 26.9 µM (inactive) | 24.6 µM (inactive) | 20.8 µM (inactive) | – | 23 µM (inactive) | – | 26.3 µM (inactive) | 18.3 µM (inactive) | 31 µM (inactive) | 15.3 µM (inactive) | 18.9 µM (inactive) | 40 µM (inactive) | 25.1 µM (inactive) | 30.5 µM (inactive)
15 | CN(C)CCNc1ccc([N+](=O)[O-])c2sc3ccccc3c(=O)c12 | 6.11 µM (inactive) | 1.56 µM (inactive) | 7.71 µM (inactive) | 3.44 µM (inactive) | 5.14 µM (inactive) | 1.99 µM (inactive) | 4.68 µM (inactive) | 0.706 µM (active) | 2.92 µM (inactive) | 4.24 µM (inactive) | 2.43 µM (inactive) | 5.19 µM (inactive) | 4.61 µM (inactive) | 3.03 µM (inactive) | 6.71 µM (inactive) | 1.56 µM (inactive) | 3.65 µM (inactive) | 4.5 µM (inactive) | 1.73 µM (inactive) | –
